Reference: patent US8093210B2, “Treatment of sepsis with 5-ethyl-1-phenyl-2(1H)-pyridone” (Solanan, Inc., priority 2008, dated 2012)

What was measured:
[1] = system: cecal ligation and puncture (CLP) model of sepsis; assay: Serum biomarkers and recoverable serum volume in cecal ligation and puncture (CLP) model of sepsis (Example 4); format: in vivo, Male Swiss-Webster mice; details: for level of blood urea nitrogen (BUN) / recoverable blood-serum volume (average volume of serum) / serum level of alanine transaminase (ALT) / serum level of creatine kinase / serum level of glucose: 200 mg/kg ip 2 h before CLP, mean ± SEM
Protocol: Cecal ligation and puncture (CLP) is a more advanced model of septic shock than those involving lipopolysaccharide (LPS). In this model, as described by Wichterman K A, Baue A E, Chaudry I H (J Surg Res. 1980, 29; 189-201), mice are given intraperitoneal (IP) injections of the test compound or saline (control) prior to the beginning of the surgery. The mice are then anesthetized and a laparotomy is performed. The cecum is isolated and separated from the rest of the intestines by tying it at its base with a suturing thread. The cecum is then punctured with a needle. This facilitates influx of the colonic microflora into the abdominal cavity, which results in polymicrobial-induced peritonitis. Unlike the endotoxin model of septic shock, which is initiated by purified bacterial cell wall products, lipopolysaccharide (LPS), that simulates an acute septic shock, the CLP model more closely mimics clinically encountered signs of septic shock seen in humans as it is triggered by living bacteria.
Male Swiss-Webster mice, seven weeks old, were injected with 5-EPP (200 mg/kg) or saline (control) by intraperitoneal route two hours prior to the beginning of the surgery. They were anesthetized by a mixture of xylazine and ketamine, and a laparotomy was performed. The cecum was separated from the rest of the intestine, ligated with suture, and then punctured with an 18 gauge needle. Blood was collected by cardiac puncture 3, 6, or 12 hours after CLP and the serum isolated by centrifugation. Analysis of serum transaminases, blood urea nitrogen, creatine kinase, and glucose was carried out by a commercial company (Idexx Laboratories, West Sacramento, Calif.).
The results are reported as the mean±standard error of the mean with the number of animals in parentheses for each group. The statistical analysis for differences between saline control and 5-EPP pretreated mice was performed using […] (Prism™ for Windows 4.02, Graphpad Software, Inc., San Diego, Calif.). A value of P<0.05 was considered to be the minimum level of statistical significance. Reference values were determined by analyzing serum from mice injected with saline but not subjected to the CLP procedure.

IL-12 = assay: Serum IL-12 (ELISA) in LPS/D-galactosamine model of sepsis (Example 5); format: in vivo, mice; details: 90 minutes after the treatment
Protocol: Mice were treated simultaneously with LPS (10 μg/kg) and D-galactosamine (600 mg/kg) (Galanos C, Freudenberg M A, Reutter W. […] They were anesthetized with halothane and blood was collected at different times by cardiac puncture and centrifuged to separate serum. The serum levels of alanine transaminase (ALT) and aspartate transaminase (AST) were measured by a commercial diagnostic company (Idexx Laboratories). The serum levels of tumor necrosis factor-alpha (TNF-α), interleukin-6 (IL-6) and interleukin-12 (IL-12) were determined by commercially available mouse enzyme-linked immunosorbent assay (ELISA) kits (BD BioSciences, San Jose, Calif.).
(§1) The methodology utilized in Example 4 was used to measure and analyze the serum enzyme data for statistical significance. The serum levels of proinflammatory cytokines between the 5-EPP treated and saline control groups were analyzed for statistical significance by one-way ANOVA and a Tukey's multiple comparison test (Prism™ for Windows 4.02, Graphpad Software, Inc. San Diego, Calif.).

Male Swiss-Webster mice = assay: LD50 estimate after a single intraperitoneal dose (Example 8); format: in vivo
Protocol: (§2) Male Swiss-Webster mice were obtained from standard commercial sources at 7 weeks of age, housed in the laboratory for at least 1 week prior to use and were provided standard mouse chow and water ad libitum. Animals were subjected to a 12 hour/12 hour light-dark cycle.
(§3) Six groups of mice were injected via the intraperitoneal route with 5-EPP (250-500 mg/kg) dissolved in sterile isotonic saline, immediately replaced in their cages and then observed carefully for the next 6-8 hours. A LD50 value was estimated from the mortality data by a non-linear curve fitting program (Prism™ for Windows 4.02).

[2] = as above; format: in vivo; details: male, Swiss-Webster, mouse, in vivo, ip; mice; single intraperitoneal dose; sigmoidal curve fit, R^2=0.949
Protocol: as §2, §3

LPS-induced septic shock = assay: Lethal shock caused by LPS alone, survival of mice (Example 3); format: in vivo; details: LPS alone (30 mg/kg), 100 mg/kg i.p., monitored for 4 days
Protocol: The survival of mice subjected to treatment of the agent and LPS alone pursuant to the methodology of Galanos C, Freudenberg M A, Reutter W. Proc Natl Acad Sci USA. 1979 November; 76 (11)5939-43) was observed. This procedure is believed to evoke a pathophysiological response which is more like that observed during septic shock than that caused by the LPS and galactosamine.
All agents were injected simultaneously via the intraperitoneal route and the response compared to a placebo agent (saline).
The animals were monitored for 4 days after treatment and the resulting data analyzed by the same Fisher exact test and criteria as before.

[3] = system: LPS/D-galactosamine model of sepsis; assay: Serum alanine and aspartate transaminase in LPS/D-galactosamine model of sepsis (Example 5); format: in vivo, mice; details: 200 mg/kg ip with LPS (10 μg/kg)/D-galactosamine (600 mg/kg)
Protocol: Mice were treated simultaneously with LPS (10 μg/kg) and D-galactosamine (600 mg/kg) (Galanos C, Freudenberg M A, Reutter W. Proc Natl Acad Sci USA. 1979, 76 (11):5939-43) and 5-EPP (200 mg/kg) by intraperitoneal route in a separate set of experiments. They were anesthetized with halothane and blood was collected at different times by cardiac puncture and centrifuged to separate serum. The serum levels of alanine transaminase (ALT) and aspartate transaminase (AST) were measured by a commercial diagnostic company (Idexx Laboratories). The serum levels of tumor necrosis factor-alpha (TNF-α), interleukin-6 (IL-6) and interleukin-12 (IL-12) were determined by commercially available mouse enzyme-linked immunosorbent assay (ELISA) kits (BD BioSciences, San Jose, Calif.).
as §1

Compound: CCc1ccc(=O)n(-c2ccccc2)c1 [5-EPP, 5-ethyl-1-phenyl-2-(1H)-pyridone]
- level of blood urea nitrogen (BUN) ([1]; 3 Hours Post-CLP): 20.8 ± 0.1 (11) mg/dL
- recoverable blood-serum volume (average volume of serum) ([1]; 3 Hours Post-CLP): 238.8 ± 20.11 (13) microliter
- serum level of alanine transaminase (ALT) ([1]; 3 Hours Post-CLP): 159.1 ± 21.2 (11) U/L
- serum level of creatine kinase ([1]; 3 Hours Post-CLP): 2790.4 ± 370.8 (11) U/L
- serum level of glucose ([1]; 3 Hours Post-CLP): 303.9 ± 30.8 (11) mg/dL
- level of blood urea nitrogen (BUN) ([1]; 6 Hours Post-CLP): 19.4 ± 1.0 (12) mg/dL
- recoverable blood-serum volume (average volume of serum) ([1]; 6 Hours Post-CLP): 219.6 ± 16.70 (12) microliter
- serum level of alanine transaminase (ALT) ([1]; 6 Hours Post-CLP): 128.9 ± 28.7 (12) U/L
- serum level of creatine kinase ([1]; 6 Hours Post-CLP): 1950.3 ± 244.1 (12) U/L
- serum level of glucose ([1]; 6 Hours Post-CLP): 116.7 ± 7.7 (12) mg/dL
- level of blood urea nitrogen (BUN) ([1]; 12 Hours Post-CLP): 23 ± 2.3 (12) mg/dL
- recoverable blood-serum volume (average volume of serum) ([1]; 12 Hours Post-CLP): 282.7 ± 27.70 (13) microliter
- serum level of alanine transaminase (ALT) ([1]; 12 Hours Post-CLP): 148.2 ± 12.5 (12) U/L
- serum level of creatine kinase ([1]; 12 Hours Post-CLP): 778.5 ± 91.6 (12) U/L
- serum level of glucose ([1]; 12 Hours Post-CLP): 102.9 ± 5.9 (12) mg/dL
- serum to blood ratio versus saline-control CLP mice ([1]; 200 mg/kg ip, at any time, data not shown): no significant difference
- serum level of IL-12 (IL-12; 50 mg/kg): 2,809 ± 325 pg/mL
- serum level of IL-12 (IL-12; 100 mg/kg): 1,371 ± 124 pg/mL
- serum level of IL-12 (IL-12; 200 mg/kg): 870 ± 99 pg/mL
- time to ataxia, loss of the righting reflex and labored breathing (Male Swiss-Webster mice; highest doses (450-500 mg/kg) ip): ≤ 5 min
- absorption and distribution, suggested by rapid onset of symptoms (Male Swiss-Webster mice; intraperitoneal route): rapidly absorbed and distributed across the blood-brain barrier
- time over which symptoms gradually lessened until animals appeared unaffected (Male Swiss-Webster mice; lower doses ip): 1 to 2 h
- LD100 (Male Swiss-Webster mice; single intraperitoneal dose, raw mortality data): 450 to 500 mg/kg
- LD50 [2]: 380 mg/kg
- mortality (LPS-induced septic shock): 30% mortality
- serum level of alanine transaminase ([3]; After 3 Hours): 109.4 ± 6.1 U/L
- serum level of aspartate transaminase ([3]; After 3 Hours): 131.3 ± 11.9 U/L
- serum level of alanine transaminase ([3]; After 6 Hours): 130.0 ± 8.9 U/L
- serum level of aspartate transaminase ([3]; After 6 Hours): 152.38 ± 14.4 U/L
- serum level of alanine transaminase ([3]; After 12 Hours): 109.5 ± 8.3 U/L
- serum level of aspartate transaminase ([3]; After 12 Hours): 173.38 ± 13.0 U/L
